# Laboratory results taken from US11485742B2, “2-azaspiro[3.4]octane derivatives as M4 agonists” (NOVARTIS AG, priority 2019, dated 2022).
# How the values were obtained:
# [1] = molecular target: T1, Cloned human M1 receptor (CHRM1) (Homo sapiens, UniProt P11229); experiment: CHRM1 Ca++ Flux Assay (HEK293 M1 cells, agonist mode); assay type: cell-based; conditions: for Emax: Percent Activity (PA), read-out: M1 FDSS PA %; for EC50: geometric mean if tested more than once, read-out: M1 FDSS EC50
# T1 construct: expressed in transfected cells; host or cells: HEK293
# T1 sequence (P11229 1-460): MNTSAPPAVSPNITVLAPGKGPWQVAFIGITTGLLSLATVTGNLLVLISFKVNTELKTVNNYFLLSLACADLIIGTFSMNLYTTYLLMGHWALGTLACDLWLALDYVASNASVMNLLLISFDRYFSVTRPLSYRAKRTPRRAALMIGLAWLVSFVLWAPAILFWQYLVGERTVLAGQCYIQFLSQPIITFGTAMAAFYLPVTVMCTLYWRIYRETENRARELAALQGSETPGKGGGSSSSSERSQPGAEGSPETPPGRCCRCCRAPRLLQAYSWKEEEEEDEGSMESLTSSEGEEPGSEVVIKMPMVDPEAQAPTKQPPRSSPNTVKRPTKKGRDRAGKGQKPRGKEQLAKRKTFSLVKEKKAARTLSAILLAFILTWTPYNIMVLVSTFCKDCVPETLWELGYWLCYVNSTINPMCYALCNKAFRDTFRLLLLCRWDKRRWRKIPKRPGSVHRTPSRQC
# How it was run: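 HEK293 cells stably expressing human M1 were loaded with Ca++ dye, then given compounds (11-point dose, triplicate) in HBSS −Ca/−Mg, 20 mM HEPES. Ca++ flux was read over 3 min (agonist mode). Four-parameter curves were fitted, with activity as percent of carbachol EC100.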
# [2] = molecular target: T2, human cloned CHRM3 receptor (Homo sapiens, UniProt P20309); experiment: CHRM3 Ca++ Flux Assay (M3_CHO cells, agonist mode); assay type: cell-based; conditions: for Emax: Percent Activity (PA) measured to EC100 of Carbachol, read-out: M3 FDSS PA %; for EC50: agonist mode, geometric mean if tested more than once, read-out: M3 FDSS EC50
# T2 construct: expressed in transfected cells; host or cells: CHO-K1 (M3_CHO)
# T2 sequence (P20309 whole entry): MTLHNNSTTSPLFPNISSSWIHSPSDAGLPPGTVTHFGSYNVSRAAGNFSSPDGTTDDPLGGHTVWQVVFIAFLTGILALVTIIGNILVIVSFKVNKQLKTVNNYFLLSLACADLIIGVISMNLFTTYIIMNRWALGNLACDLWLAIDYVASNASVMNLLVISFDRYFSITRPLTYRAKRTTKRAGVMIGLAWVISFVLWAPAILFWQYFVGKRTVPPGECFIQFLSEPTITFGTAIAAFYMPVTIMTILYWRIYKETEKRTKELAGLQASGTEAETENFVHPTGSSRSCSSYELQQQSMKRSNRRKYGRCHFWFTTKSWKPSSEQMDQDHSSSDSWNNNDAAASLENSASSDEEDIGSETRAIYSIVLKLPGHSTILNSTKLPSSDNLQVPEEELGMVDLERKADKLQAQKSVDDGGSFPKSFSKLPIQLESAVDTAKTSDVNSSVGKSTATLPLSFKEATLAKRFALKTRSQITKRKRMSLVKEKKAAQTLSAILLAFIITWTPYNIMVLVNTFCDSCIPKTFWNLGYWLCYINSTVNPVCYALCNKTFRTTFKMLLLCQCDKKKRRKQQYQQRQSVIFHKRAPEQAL
# How it was run: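 CHO-K1 cells stably expressing human M3 or M5 receptor, dye-loaded ≥1 h, treated with 11-point compound doses in triplicate; Ca++ flux read over 3 min (FDSS). Agonist-mode four-parameter fit; percent activity relative to carbachol EC100; repeat tests reported as geometric mean.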
SMILES,Emax [1],EC50 [1],Emax [2],EC50 [2]
"Fc1ccc(OC2CC3(COC3)C2)c(C2CCN([C@@H]3COC4(C3)CN(c3ncon3)C4)CC2)c1 [Example 6C, (S)-7-(4-(2-((2-oxaspiro[3.3]heptan-6-yl)oxy)-5-fluorophenyl)piperidin-1-yl)-2-(1,2,4-oxadiazol-3-yl)-5-oxa-2-azaspiro[3.4]octane]",65%,2420 nM,0%,> 25000 nM
"CCc1nnc(COc2ccc(F)cc2C2CCN([C@@H]3COC4(C3)CN(c3nnco3)C4)CC2)s1 [Example 2T, (S)-7-(4-(2-((5-ethyl-1,3,4-thiadiazol-2-yl)methoxy)-5-fluorophenyl)piperidin-1-yl)-2-(1,3,4-oxadiazol-2-yl)-5-oxa-2-azaspiro[3.4]octane]",89%,63 nM,0%,> 25000 nM
"Fc1ccc(OC2COC2)c(C2CCN([C@@H]3COC4(C3)CN(c3nnco3)C4)CC2)c1 [Example 1A, (S)-7-(4-(5-fluoro-2-(oxetan-3-yloxy)phenyl)piperidin-1-yl)-2-(1,3,4-oxadiazol-2-yl)-5-oxa-2-azaspiro[3.4]octane]",92%,210 nM,0%,> 25000 nM
"Fc1ccc(OCC2CC3(COC3)C2)c(C2CCN([C@@H]3COC4(C3)CN(c3nnco3)C4)CC2)c1 [Example 2S, (S)-7-(4-(2-((2-oxaspiro[3.3]heptan-6-yl)methoxy)-5-fluorophenyl)piperidin-1-yl)-2-(1,3,4-oxadiazol-2-yl)-5-oxa-2-azaspiro[3.4]octane]",53%,5410 nM,0%,> 25000 nM
"COc1cc(F)ccc1C1CCN([C@@H]2COC3(C2)CN(c2nnco2)C3)CC1 [Example 1S, (S)-7-(4-(4-fluoro-2-methoxyphenyl)piperidin-1-yl)-2-(1,3,4-oxadiazol-2-yl)-5-oxa-2-azaspiro[3.4]octane]",71%,634 nM,0%,> 25000 nM
"CC1(COc2ccc(F)cc2C2CCN([C@@H]3COC4(C3)CN(c3nnco3)C4)CC2)COC1 [Example 2K, (S)-7-(4-(5-fluoro-2-((3-methyloxetan-3-yl)methoxy)phenyl)piperidin-1-yl)-2-(1,3,4-oxadiazol-2-yl)-5-oxa-2-azaspiro[3.4]octane]",97%,1360 nM,0%,> 25000 nM
"CC(C)(O)COc1ccccc1C1CCN([C@@H]2COC3(C2)CN(c2ncns2)C3)CC1 [Example 5Y, (S)-1-(2-(1-(2-(1,2,4-thiadiazol-5-yl)-5-oxa-2-azaspiro[3.4]octan-7-yl)piperidin-4-yl)phenoxy)-2-methylpropan-2-ol]",47%,1990 nM,0%,> 25000 nM
"Fc1ccc(OC[C@H]2CCOC2)c(C2CCN([C@@H]3COC4(C3)CN(c3nnco3)C4)CC2)c1 [Example 1I, (S)-7-(4-(5-fluoro-2-(((S)-tetrahydrofuran-3-yl)methoxy)phenyl)piperidin-1-yl)-2-(1,3,4-oxadiazol-2-yl)-5-oxa-2-azaspiro[3.4]octane]",54%,980 nM,0%,> 25000 nM
"CCC1(COc2ccc(F)cc2C2CCN([C@@H]3COC4(C3)CN(c3nnco3)C4)CC2)COC1 [Example 2P, (S)-7-(4-(2-((3-ethyloxetan-3-yl)methoxy)-5-fluorophenyl)piperidin-1-yl)-2-(1,3,4-oxadiazol-2-yl)-5-oxa-2-azaspiro[3.4]octane]",71%,2080 nM,0%,> 25000 nM
